Reference: article PMC12349723, “Computationally accelerated identification of P-glycoprotein inhibitors” (PLOS One, 2025)
Where “and” joins values, the source holds several entries; their conditions need not be identical. Equal values may be shown once.

Assays:
[1] = SWISS-ADME computational analysis of chemical properties; settings: predicted aqueous solubility compared to that observed in the laboratory
Text: Identifying P-gp inhibitors that are not transport substrates remains inherently challenging. To that end, computational tools such as the SWISS-ADME server attempt to use a molecule’s unique chemical and structural characteristics to predict whether it is likely to be a P-gp transport substrate. Our LC-MS/MS assays allowed us to retroactively test the validity of predictions from SWISS-ADME. […] Alternative identifiers for the molecules identified in this study are shown in S7 Table.
S1 Table. Known P-gp Inhibitors and Predicted Chemical Properties. A non-exhaustive list of known P-gp inhibitors and their selected chemical properties ^[64, 65]. Clinical trial outcomes were adapted from ^[10, 11]. Compounds were evaluated using the SWISS-ADME server ^[54]. […] “Predicted P-gp Substrate” - predicted by SWISS-ADME to be a transport substrate of P-gp. “Known P-gp Substrate” – In addition to being P-gp inhibitors, these molecules are: known transport substrates of P-gp, known non-transport substrates of P-gp, unknown whether it is a transport substrate of P-gp ^[66-68]. If the molecule is designated in a specific generation of P-gp inhibitors - First Generation P-gp inhibitors, Second generation P-gp inhibitors, Third generation P-gp inhibitors.

[2] = test system: DU145 cells; assay: MTT viability assay, non-P-gp overexpressing DU145 parental line, with or without PTX; format: cell-based, human
Protocol: The chemotherapeutic sensitive DU145 human prostate cancer cells and the multidrug resistant sub-line, DU145-TXR, were generous gifts from Dr. Evan Keller (University of Michigan, Ann Arbor, MI). The MDR, P-gp overexpressing DU145-TXR cells were maintained under positive selection pressure by supplementing complete medium with 10 nM paclitaxel (Acros Organics, NJ). […] The MDR, P-gp overexpressing A2780-ADR cell line was maintained under positive selection pressure by supplementing complete medium with 100 nM doxorubicin (Fisher Scientific, NJ). The non-cancerous HFL1 (human lung fibroblast) cell line cell line was a generous gift from Dr. Robert Harrod (Southern Methodist University, Dallas, TX) and was maintained in complete F12K media consisting of F12K with 10% fetal bovine serum, 100 U/mL penicillin, and 100 µg/mL streptomycin (Gibco). Flasks and 96 well plates that were used with the non-cancerous line HFL1 were pre-treated with 0.1 mg/ml Collagen Type 1 (Gibco) and rinsed with PBS (Fisher).
Culture of the DU145, DU145-TXR, and HFL1 cell lines was performed as described in [8]. Culture of the A2780 and A2780-ADR cell lines was performed as described in [9]. MTT assays were performed as described in [8] with minor modifications. […] Data represent the mean of two separate experiments, with n = 3 samples per experiment (n = 6 total) (S4 Table).
MTT assays measure the reduction of yellow, water soluble 3-(4,5-dimethylthiazol-2-yl)-2,5-diphenyltetrazolium bromide (MTT) to blue, insoluble formazan crystals by cellular reductase processes in living cells. Cells were trypsinized from monolayers and seeded in complete medium in 96 well plates. Cancerous cell lines (DU145, DU145-TXR, A2780, A2780-ADR) were seeded at 3,000 cells per well in complete RPMI medium. The non-cancerous HFL1 line was seeded at 4,000 cells per well in complete F12K medium, in collagen-treated plates (Collagen Type 1, Gibco). Cells were incubated with experimental compounds for 48 hours at 37 °C and 5% CO2 in a humidified incubator. At 48 hours, MTT was added (20 µL/well of 5 mg/mL MTT in PBS) to each well. After incubation for 4 hours, the media was removed, and the formazan crystals were dissolved in 100 µL DMSO per well. Plates containing the semi-adherent A2780 or A2780-ADR lines were spun at 1400 rpm for 3 minutes prior to aspiration of media, and the addition of DMSO. Plates were shaken for 10 minutes at 500 rpm on an Orbital shaker (LabDoctor from MidSci, St Louis, MO). The absorbance was measured at 570 nm using a Bio-Tek Cytation 5 (Bio-Tek, Winooski, VT). The measured absorbance value was correlated with the number of metabolically active cells in that well, corrected for absorbance of media. The percent of cell viability (termed ‘survival’ here) was calculated as a percentage of survival of the control condition, which refers to vehicle-treated (DMSO as vehicle) cells, or vehicle-and-chemotherapeutic-treated cells, if testing a compound’s ability to re-sensitize cells to a chemotherapeutic. Percent survival was calculated using the following equation:
% Survival=100 × absorbance of experimental cells/mean absorbance of control treated cells
For DU145-TXR, DU145, HFL1 and A2780 cells – data are the mean ± one standard deviation, 8 samples per compound, from at least two independent trials per compound. […] For A2780-ADR cells, data are the mean ± one standard deviation with 12 samples per compound, from at least two independent trials per compound.
67 compounds were chosen from computational screens for testing in vitro. A) DU145-TXR cells were exposed to 15 µM experimental compound with or without 500 nM of the P-gp substrate and chemotherapeutic paclitaxel (PTX).

[3] = biological target: T1, P-gp (Homo sapiens, UniProt P08183); assay: Top Hit classification from combined in vitro criteria; settings: reverse MDR, do not increase PTX toxicity in chemo-sensitive cancer cells, non-toxic to noncancerous cells, not P-gp substrates
T1 construct: The MDR, P-gp overexpressing DU145-TXR cells were maintained under positive selection pressure; endogenous in cells; host or cells: DU145-TXR (paclitaxel-resistant sub-line of DU145 human prostate cancer cells)
T1 sequence (P08183 whole entry): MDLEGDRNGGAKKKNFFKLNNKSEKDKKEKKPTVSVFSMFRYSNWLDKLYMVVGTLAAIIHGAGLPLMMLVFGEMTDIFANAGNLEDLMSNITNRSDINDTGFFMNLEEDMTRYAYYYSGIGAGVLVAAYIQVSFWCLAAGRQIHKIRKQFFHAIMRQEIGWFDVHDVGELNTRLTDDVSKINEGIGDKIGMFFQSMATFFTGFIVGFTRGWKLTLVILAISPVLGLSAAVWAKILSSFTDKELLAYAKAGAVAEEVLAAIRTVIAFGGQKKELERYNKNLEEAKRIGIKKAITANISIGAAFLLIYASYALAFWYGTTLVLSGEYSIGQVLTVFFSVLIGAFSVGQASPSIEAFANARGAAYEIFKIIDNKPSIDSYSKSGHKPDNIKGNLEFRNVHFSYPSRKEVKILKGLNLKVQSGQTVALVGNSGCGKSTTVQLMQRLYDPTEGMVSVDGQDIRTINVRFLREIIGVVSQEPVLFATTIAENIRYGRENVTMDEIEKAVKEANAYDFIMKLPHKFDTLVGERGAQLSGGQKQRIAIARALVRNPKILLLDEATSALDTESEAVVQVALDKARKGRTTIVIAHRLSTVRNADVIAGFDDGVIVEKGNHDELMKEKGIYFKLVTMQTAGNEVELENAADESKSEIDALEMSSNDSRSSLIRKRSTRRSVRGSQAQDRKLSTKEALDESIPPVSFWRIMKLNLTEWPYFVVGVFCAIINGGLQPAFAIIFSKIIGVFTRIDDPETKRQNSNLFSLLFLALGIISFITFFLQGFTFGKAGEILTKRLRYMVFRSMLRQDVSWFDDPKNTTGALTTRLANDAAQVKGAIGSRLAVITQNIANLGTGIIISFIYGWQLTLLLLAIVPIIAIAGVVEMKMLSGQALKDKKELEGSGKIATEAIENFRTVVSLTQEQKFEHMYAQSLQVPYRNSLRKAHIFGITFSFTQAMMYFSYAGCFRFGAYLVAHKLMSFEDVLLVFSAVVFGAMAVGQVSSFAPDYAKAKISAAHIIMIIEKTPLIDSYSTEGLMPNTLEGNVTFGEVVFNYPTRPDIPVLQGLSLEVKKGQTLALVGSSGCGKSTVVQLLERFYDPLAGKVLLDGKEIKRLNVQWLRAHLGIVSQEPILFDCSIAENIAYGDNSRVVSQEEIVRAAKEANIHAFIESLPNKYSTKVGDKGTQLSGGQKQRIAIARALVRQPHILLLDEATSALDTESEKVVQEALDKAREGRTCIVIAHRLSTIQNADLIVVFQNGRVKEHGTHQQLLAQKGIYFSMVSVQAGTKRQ

[4] = DU145 cells, 48 h, single samples, 2 trials x 4 samples

Structure (SMILES): O=C(c1nc(-c2ccccn2)no1)N1CCN(c2nsc3ccccc23)CC1 [Compound 124, O=C(N1CCN(CC1)c1nsc2ccccc12)c1nc(no1)-c1ccccn1]
- Correct Water Solubility Prediction? [1]: Yes
- Sensitization of DU145 cells to PTX ([2]; 15 µM compound + PTX vs PTX alone): insignificantly sensitize DU145 cells to PTX
- % Survival, Mean, 15 µM compound + 500 nM PTX ([2]; DU145 cells, 48 h, mean of 8 samples): 20.9%
- % Survival, 15 µM Compound alone (individual samples) [2, 4]: 85%
- % Survival, 15 µM compound + 500 nM PTX (individual samples) [2, 4]: 17% and 26%
- viability at 15 µM ([2]; Homo sapiens, DU-145, 48 h, DU145 cells, 48 h, mean of 8 samples, read-out: % Survival, Mean, 15 µM Compound alone): 76.9%
- Top Hit [3]: No
